Where “and” joins values, the source holds several entries; their conditions need not be identical. Identical values can stand only once.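 In this assay, cells in 96-well plates receive the compound at five concentrations for 48 hours. Endpoints are linearly interpolated between the surrounding concentrations. At the GI50, growth is halved. The concentration for full growth arrest is given as TGI.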 Some results are limits rather than exact numbers.

This note sets out measurements from PubChem BioAssay (NCI).

This assay relates to MDA-MB-468 breast. In words: DTP human tumour cell line panel, 48 h.

As a reminder, the GI50 is the concentration giving 50% growth inhibition. By TGI is commonly meant the concentration at which net growth stops. Read a low TGI as more potent growth arrest. Turning to `c1cn2cc(-c3ccc4cn[nH]c4c3)nc(Nc3ccc(N4CCOCC4)cc3)c2n1`, the GI50 was 8.59 µM and the concentration for total growth inhibition (TGI) is 32.4 µM.
Taken in the same sequence, the figures for `C=C1C(=O)O[C@H]2[C@H]1CC/C(COC(=O)CSCC(=O)OC/C1=C/CC[C@@]3(C)O[C@H]3[C@H]3OC(=O)C(=C)[C@@H]3CC1)=C\CC[C@@]1(C)O[C@@H]21` were 1.42 µM and 3.5 µM.
In the case of `COc1ccc2c(c1)C(=O)/C(=C/c1ncc([N+](=O)[O-])n1C)O2`, the GI50 is 1.7 µM and the TGI came to 4.12 µM.
Taken in the same sequence, the figures for `NC1=NC(c2ccc(Cl)cc2)C2=C(N1)/C(=C/c1ccc(Cl)cc1)CCC2` (stereo not drawn) were 3.49 µM and 13.9 µM.
Taken in the same sequence, the figures for `Cc1cc(C)c(O)c(CN(C)Cc2cc(Cl)cc(Cl)c2O)c1` were 2.83 µM and 11.8 µM.
Taken in the same sequence, the figures for `C#CC(F)(F)[C@]1(O)CC[C@H]2[C@@H]3CCC4=CC(=O)CCC4=C3[C@@H](c3ccc(C(C)=O)cc3)C[C@@]21C` were 7.69 µM and 34.1 µM.
Turning to `CN1CCN(Cc2ccc(NC(=O)c3ccc(C#Cc4c(N)ncc5ccc(F)cc45)cc3)cc2C(F)(F)F)CC1`, the GI50 was 0.998 µM and the concentration for total growth inhibition (TGI) worked out at 1.97 µM.
On the same counts, the results for `O=C(N/N=C/c1ccc([N+](=O)[O-])cc1)c1ccc2nc(-c3ccc(Cl)cc3)[nH]c2c1` are 1.97 µM and 4.79 µM.
Take `O=C(Nc1ccc(Cl)cc1)c1cc(-c2ccc(Cl)cc2)c2sc(=O)[nH]c2n1`: the GI50 is 1.73 µM and the TGI amounted to 6.62 µM.
Taken in the same sequence, the figures for `COc1cccc2c1C(=O)c1c(O)c3c(c(O)c1C2=O)C[C@@](O)(C(=O)CO)C[C@@H]3OC1C[C@H](N)[C@H](O)[C@H](C)O1` (stereo partly drawn) were 0.0253 µM and 0.123 µM.
As for `C/C=C/CC(C)C(O)C1C(=O)NC(CC)C(=O)N(C)CC(=O)N(C)C(CC(C)C)C(=O)NC(C(C)C)C(=O)N(C)C(CC(C)C)C(=O)NC(C)C(=O)NC(C)C(=O)N(C)C(CC(C)C)C(=O)N(C)C(CC(C)C)C(=O)N(C)C(C(C)C)C(=O)N1C` (stereo not drawn), the GI50 is 0.872 µM and the total growth inhibition concentration (TGI) was found to be 6.63 µM.
On to `CSc1ccc2c3c(n(C[C@H](O)CO)c(=O)c2c1)-c1ccccc1C3=O`, for which the GI50 is 1.87 µM and the TGI came to 5.78 µM.
Taken in the same sequence, the figures for `COc1ccc(C(=O)c2cc3c(OC)c(OC)c(OC)cc3[nH]2)cc1` were 2.64 µM and greater than 100 µM.
Consider `COc1ccc2c(c1)C(c1ccccc1Cl)=Nc1c(n[nH]c1C)N2`, for which the GI50 was greater than 16.8 µM and the total growth inhibition concentration (TGI) was greater than 25 µM.
On to `CC(=O)O/N=C1/C(c2c(O)[nH]c3cc(Br)ccc23)=Nc2ccccc21`, for which the GI50 was 1.64 µM and the concentration for total growth inhibition (TGI) amounted to 3.22 µM.
Take `O=C(Nc1ccccc1O)c1ccc(Oc2cccc(C(=O)Nc3ccccc3O)c2)cc1`: the GI50 is 2.17 µM and the TGI came out at 8.16 µM.
In the case of `COc1cc(/C=C2\CN(C)C/C(=C\c3cc(CN4CCCCC4)c(O)c(OC)c3)C2=O)cc(CN2CCCCC2)c1O`, the GI50 is 3.79 µM and the concentration for total growth inhibition (TGI) stood at 14.7 µM.
In the case of `O=c1[nH]cnc2[nH]ncc12`, the GI50 was 152 µM and the concentration for total growth inhibition (TGI) turned out to be 2680 µM.
Turning to `COc1ccc2nc3cc(Cl)ccc3c(NCCCNCCC(C)O)c2c1` (stereo not drawn), the 50% growth inhibitory concentration (GI50) was 0.313 µM and the total growth inhibition concentration (TGI) is 1.78 µM.
In the case of `Cc1cc(Nc2ncnc3ccc(NC4=NC(C)(C)CO4)cc23)ccc1Oc1ccn2ncnc2c1`, the GI50 was 1.78 µM and 2.18 µM; the concentration for total growth inhibition (TGI) was 12.7 µM and > 10 µM.
As for `O=Nc1ccc2ccccc2c1O`, the GI50 was 13.4 µM and the TGI worked out at 34.9 µM.
Taken in the same sequence, the figures for `Cc1c(C)[n+](=O)c(C)c(C)n1[O-]` were greater than 100 µM and greater than 100 µM.
Taken in the same sequence, the figures for `O=c1cc(-c2ccccc2)[nH]n1-c1nc2ccccc2[nH]1` were 4.3 µM and 45.9 µM.
On the same counts, the results for `CN(C)C(=O)c1cc2cnc(Nc3ccc(-c4csc5c(=O)cc(N6CCOCC6)oc45)cc3)nc2n1C1CCCC1` are 0.122 µM and 0.397 µM.
In the case of `O=C(Cc1cccc(OC(F)(F)F)c1)Nc1ccc(CCCCc2nnc(NC(=O)Cc3ccccn3)s2)nn1`, the GI50 is 7.69 µM and the TGI stood at 58.5 µM.
Taken in the same sequence, the figures for `NS(=O)(=O)c1cccc(N=Cc2c(O)[nH]c3ccccc23)c1` were greater than 25 µM and greater than 25 µM.
Taken in the same sequence, the figures for `CC(C)NC(=O)OCc1c(COC(=O)NC(C)C)c(-c2ccc(Cl)cc2)n2c1CCC2` were 0.928 µM and 2.5 µM.
With `O=C(CCl)N1c2ccccc2Sc2ccc3ccccc3c21`, the 50% growth inhibitory concentration (GI50) is 0.351 µM and the TGI turned out to be 1.46 µM.
For `COC(=O)[C@]12CC[C@@H](C)[C@H](C)[C@@H]1C1=CC[C@@H]3[C@@]4(C)C=C(O)C(=O)[C@@]5(C)COC(=C54)C[C@@]3(C)[C@]1(C)CC2`, the GI50 is 4.88 µM and the TGI was determined as 19.9 µM.
Take `Cc1c2c[n+](C(C)C)ccc2c(C)c2c1[nH]c1ccccc12`: the GI50 was 0.312 µM and the concentration for total growth inhibition (TGI) was 1.97 µM.
On the same counts, the results for `C=CC(=O)N[C@H]1CCOC[C@H]1Nc1ncc2cc(-c3c(Cl)c(OC)cc(OC)c3Cl)ccc2n1` are 9.16 µM and 44.7 µM.
Consider `Cc1cc(Cc2cc(C)cc(C(C)(C)C)c2O)c(O)c(C(C)(C)C)c1`, for which the GI50 is 11.4 µM and the TGI is 24.2 µM.
Taken in the same sequence, the figures for `COc1ccccc1/C=N\N=C(N/N=C/c1ccccc1OC)N/N=C/c1ccccc1OC` were 3.51 µM and 10.7 µM.
Taken in the same sequence, the figures for `O=C(Nc1ccc(Cl)c(C(F)(F)F)c1)Nc1ccc2c(ccn2C(=O)c2cccc(F)c2)c1` were 1.83 µM and 4.96 µM.
In the case of `COc1ccc(Cl)cc1NC(=O)C(Br)C(Br)C(=O)O` (stereo not drawn), the GI50 was 0.567 µM and the TGI worked out at 2.27 µM.
Taken in the same sequence, the figures for `O=C(N/N=C/c1ccccc1O)C(=O)Nc1ccc(F)cc1` were 4.41 µM and greater than 100 µM.
As to `CCOP(=O)(OCC)OC[C@]12CCC(C)(C)C[C@H]1C1=CC[C@@H]3[C@@]4(C)C/C(=C\c5cccnc5)[C@H](OP(=O)(OCC)OCC)C(C)(C)[C@@H]4CC[C@@]3(C)[C@]1(C)CC2`, the GI50 was 1.12 µM and the total growth inhibition concentration (TGI) worked out at 2.5 µM.
On the same counts, the results for `N#CCc1ncc(-c2ccc(C(F)(F)F)cc2)c(NC2CCCCCC2)n1` are greater than 10 µM and greater than 10 µM.
Consider `C=C1C(=O)O[C@H]2[C@H]1CC/C(COC(=O)NCCc1c[nH]c3ccc(OC)cc13)=C\CC[C@@]1(C)O[C@@H]21`, for which the GI50 is 1.19 µM and the TGI was 2.91 µM.
Turning to `Cn1cc(-c2cnc3ccc4ccc(CS(=O)(=O)NCc5ccccn5)cc4c(=O)c3c2)cn1`, the GI50 was 10.9 µM and the TGI was 29 µM.
On the same counts, the results for `CCCCCCCCCCCCSC(=N)N` are 6.21 µM and 20.5 µM.
On the same counts, the results for `CCN1c2ccccc2C(Cl)(c2ccc(N(C)C)cc2)c2ccccc21` are 3.36 µM and 15.5 µM.
As for `O=C(O)c1cc2cc(OCc3ccccc3)c(OCc3ccccc3)cc2[nH]1`, the GI50 was 17.9 µM and the TGI is 36.7 µM.
As to `COc1cc(-c2nc3sc4c(c3c(=O)[nH]2)CCCCCC4)cc(OC)c1OC`, the GI50 was 0.676 µM and the total growth inhibition concentration (TGI) was 3.01 µM.
